Tested on: NCI-H196 complex spheroid growth, percent test/control
Test: Anticancer human tumor NCI-H196 cell line growth inhibition [AhR];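 note: seven days of drug exposure starting three days after plating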;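 for viability, T/C: 100% = DMSO vehicle control wells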
Settings: for IC50: curve of first compound; for viability, T/C: stronger effect = lower value
Outline: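 Spheroids combined tumor cells with HUVEC endothelial cells and human MSCs as stroma. AhR antagonists were paired with standard or investigational drugs, each dosed in half-log steps down from near clinical Cmax, or from 10 microM where Cmax was unknown.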

[1] = second compound 0.1 µM, first compound 0.0316 µM
[2] = second compound 0.1 µM, first compound 0.1 µM
[3] = second compound 0.1 µM, first compound 0.316 µM
[4] = second compound 0.1 µM, first compound 1 µM
[5] = second compound 0.1 µM, first compound 3.16 µM
[6] = second compound 0.1 µM, first compound 10 µM
[7] = second compound 0.316 µM, first compound 0.0316 µM
[8] = second compound 0.316 µM, first compound 0.1 µM
[9] = second compound 0.316 µM, first compound 0.316 µM
[10] = second compound 0.316 µM, first compound 1 µM
[11] = second compound 0.316 µM, first compound 3.16 µM
[12] = second compound 0.316 µM, first compound 10 µM
[13] = second compound 1 µM, first compound 0.0316 µM
[14] = second compound 1 µM, first compound 0.1 µM
[15] = second compound 1 µM, first compound 0.316 µM
[16] = second compound 1 µM, first compound 1 µM
[17] = second compound 1 µM, first compound 3.16 µM
[18] = second compound 1 µM, first compound 10 µM
[19] = second compound 3.16 µM, first compound 0.0316 µM
[20] = second compound 3.16 µM, first compound 0.1 µM
[21] = second compound 3.16 µM, first compound 0.316 µM
[22] = second compound 3.16 µM, first compound 1 µM
[23] = second compound 3.16 µM, first compound 3.16 µM
[24] = second compound 3.16 µM, first compound 10 µM
[25] = second compound 10 µM, first compound 0.0316 µM
[26] = second compound 10 µM, first compound 0.1 µM
[27] = second compound 10 µM, first compound 0.316 µM
[28] = second compound 10 µM, first compound 1 µM
[29] = second compound 10 µM, first compound 3.16 µM
[30] = second compound 10 µM, first compound 10 µM
[31] = second compound 0.1 µM, first compound 0.00316 µM
[32] = second compound 0.1 µM, first compound 0.01 µM
[33] = second compound 0.316 µM, first compound 0.00316 µM
[34] = second compound 0.316 µM, first compound 0.01 µM
[35] = second compound 1 µM, first compound 0.00316 µM
[36] = second compound 1 µM, first compound 0.01 µM
[37] = second compound 3.16 µM, first compound 0.00316 µM
[38] = second compound 3.16 µM, first compound 0.01 µM
[39] = second compound 10 µM, first compound 0.00316 µM
[40] = second compound 10 µM, first compound 0.01 µM

SMILES | IC50 (second compound 0.1 µM) [nM] | IC50 (second compound 0.316 µM) [nM] | IC50 (second compound 1 µM) [nM] | IC50 (second compound 3.16 µM) [nM] | IC50 (second compound 10 µM) [nM] | viability, T/C [1] [%] | viability, T/C [2] [%] | viability, T/C [3] [%] | viability, T/C [4] [%] | viability, T/C [7] [%] | viability, T/C [8] [%] | viability, T/C [9] [%] | viability, T/C [10] [%] | viability, T/C [13] [%] | viability, T/C [14] [%] | viability, T/C [15] [%] | viability, T/C [19] [%] | viability, T/C [20] [%] | viability, T/C [25] [%] | viability, T/C [26] [%] | other results
CC(C)c1c(-c2ccccc2)nc2c(C#N)c[nH]n2c1=O + Cc1ccccc1N=Nc1ccc(NC(=O)c2ccnn2C)c(C)c1 | > 10000 | > 10000 | > 10000 | > 10000 | > 10000 | 103 | 104 | 89.5 | 99.1 | 95.6 | 99.4 | 99.4 | 93.6 | 97.7 | 96.9 | 101 | 109 | 100 | 95 | 98 | viability, T/C [5]: 112%; viability, T/C [6]: 97.9%; viability, T/C [11]: 103%; viability, T/C [12]: 88.7%; viability, T/C [16]: 97%; viability, T/C [17]: 99.3%; viability, T/C [18]: 104%; viability, T/C [21]: 101%; viability, T/C [22]: 96.3%; viability, T/C [23]: 94.9%; viability, T/C [24]: 104%; viability, T/C [27]: 96.5%; viability, T/C [28]: 95.7%; viability, T/C [29]: 96.1%; viability, T/C [30]: 95.7%
CC[C@@]1(O)C(=O)OCc2c1cc1n(c2=O)Cc2cc3c(CN(C)C)c(O)ccc3nc2-1 + Cc1cncc(-c2nc(NCCc3c[nH]c4ccccc34)c3ncn(C(C)C)c3n2)c1 | > 100 | > 100 | > 100 | > 100 | > 100 | 96.8 | 105 |  |  | 94.7 | 99.2 |  |  | 101 | 89.8 |  | 104 | 95.2 | 83.9 | 77.2 | viability, T/C (second compound 0.1 µM, first compound 0.000316 µM): 105%; viability, T/C (second compound 0.1 µM, first compound 0.001 µM): 95.5%; viability, T/C [31]: 83%; viability, T/C [32]: 88.8%; viability, T/C (second compound 0.316 µM, first compound 0.000316 µM): 101%; viability, T/C (second compound 0.316 µM, first compound 0.001 µM): 100%; viability, T/C [33]: 98.8%; viability, T/C [34]: 95.5%; viability, T/C (second compound 1 µM, first compound 0.000316 µM): 108%; viability, T/C (second compound 1 µM, first compound 0.001 µM): 103%; viability, T/C [35]: 91%; viability, T/C [36]: 92.3%; viability, T/C (second compound 3.16 µM, first compound 0.000316 µM): 104%; viability, T/C (second compound 3.16 µM, first compound 0.001 µM): 101%; viability, T/C [37]: 96.7%; viability, T/C [38]: 88.8%; viability, T/C (second compound 10 µM, first compound 0.000316 µM): 82.8%; viability, T/C (second compound 10 µM, first compound 0.001 µM): 97.7%; viability, T/C [39]: 95.7%; viability, T/C [40]: 74.1%
COc1cc(C2c3cc4c(cc3C(OC3OC5COC(C)OC5C(O)C3O)C3COC(=O)C23)OCO4)cc(OC)c1O (stereo not given) + Cc1cncc(-c2nc(NCCc3c[nH]c4ccccc34)c3ncn(C(C)C)c3n2)c1 | > 10000 | > 10000 | > 10000 | > 10000 | > 10000 | 104 | 103 | 98.9 | 99.8 | 104 | 109 | 101 | 105 | 99.7 | 112 | 104 | 108 | 114 | 89.1 | 92 | viability, T/C [5]: 103%; viability, T/C [6]: 96.7%; viability, T/C [11]: 112%; viability, T/C [12]: 89.4%; viability, T/C [16]: 109%; viability, T/C [17]: 103%; viability, T/C [18]: 77.8%; viability, T/C [21]: 112%; viability, T/C [22]: 105%; viability, T/C [23]: 100%; viability, T/C [24]: 81.9%; viability, T/C [27]: 101%; viability, T/C [28]: 84.3%; viability, T/C [29]: 77.4%; viability, T/C [30]: 62%
COc1cccc2c1C(=O)c1c(O)c3c(c(O)c1C2=O)CC(O)(C(=O)CO)CC3OC1CC(N)C(O)C(C)O1 (stereo not given) + Cc1cncc(-c2nc(NCCc3c[nH]c4ccccc34)c3ncn(C(C)C)c3n2)c1 | 545 | 528 | 458 | 414 | 330 | 117 | 102 | 72.1 | 27.3 | 109 | 115 | 77.3 | 15.7 | 110 | 106 | 66.3 | 119 | 95.9 | 94.2 | 77.8 | viability, T/C [5]: 2.2%; viability, T/C [6]: 2.04%; viability, T/C [11]: 0.7%; viability, T/C [12]: 1.46%; viability, T/C [16]: 15.6%; viability, T/C [17]: 0.61%; viability, T/C [18]: 3.01%; viability, T/C [21]: 66.2%; viability, T/C [22]: 6.46%; viability, T/C [23]: 1.24%; viability, T/C [24]: 2.12%; viability, T/C [27]: 53.6%; viability, T/C [28]: 2.32%; viability, T/C [29]: 0.59%; viability, T/C [30]: 1.88%
Nc1ccn(C2OC(CO)C(O)C2(F)F)c(=O)n1 (stereo not given) + Cc1cncc(-c2nc(NCCc3c[nH]c4ccccc34)c3ncn(C(C)C)c3n2)c1 | 377 | 620 | 811 | 289 | > 10000 | 71.4 | 60.1 | 50.4 | 48.8 | 83.1 | 62.8 | 51.4 | 47.3 | 71.5 | 60.7 | 49.5 | 81.3 | 70.6 | 76.6 | 88.1 | viability, T/C [5]: 43.4%; viability, T/C [6]: 52%; viability, T/C [11]: 51.3%; viability, T/C [12]: 43.8%; viability, T/C [16]: 54.3%; viability, T/C [17]: 45.5%; viability, T/C [18]: 46.7%; viability, T/C [21]: 48.3%; viability, T/C [22]: 45.2%; viability, T/C [23]: 47.8%; viability, T/C [24]: 45.3%; viability, T/C [27]: 78%; viability, T/C [28]: 53.1%; viability, T/C [29]: 54.8%; viability, T/C [30]: 57.1%
Nc1ncn(C2CC(O)C(CO)O2)c(=O)n1 (stereo not given) + Cc1cncc(-c2nc(NCCc3c[nH]c4ccccc34)c3ncn(C(C)C)c3n2)c1 | > 1000 | > 1000 | > 1000 | > 1000 | > 1000 | 104 | 97.9 | 107 | 99.8 | 114 | 104 | 105 | 105 | 115 | 96.3 | 117 | 109 | 111 | 104 | 89.6 | viability, T/C [31]: 110%; viability, T/C [32]: 105%; viability, T/C [33]: 106%; viability, T/C [34]: 98.5%; viability, T/C [35]: 122%; viability, T/C [36]: 106%; viability, T/C [16]: 103%; viability, T/C [37]: 102%; viability, T/C [38]: 112%; viability, T/C [21]: 108%; viability, T/C [22]: 109%; viability, T/C [39]: 96.2%; viability, T/C [40]: 86.9%; viability, T/C [27]: 87.8%; viability, T/C [28]: 86.1%

— PubChem BioAssay AID1919016 (Molecular Pharmacology Branch, DTP, NCI, 2023)
